According to ChEMBL document CHEMBL1201862, “PubChem BioAssay data set” (2004):
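In this assay, cells in 96-well plates receive the compound at five concentrations for 48 hours. Endpoints are linearly interpolated between the surrounding concentrations. GI50 is the concentration that inhibits growth by half.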 Active and inactive are the calls of the source. Cut-off read from the data, not from the text of the source: active = GI50 up to about 1.1 µM and inactive = higher.

How the values were obtained:
Assay in all cases: NCI anticancer screen, dose series, 48 h
A498 = tested on: A498
HCT-116 = tested on: HCT-116
HL-60 = tested on: HL-60
IGROV-1 = tested on: IGROV-1
MDA-N = tested on: MDA-N
MOLT-4 = tested on: MOLT-4
NCI-H522 = tested on: NCI-H522
RPMI-8226 = tested on: RPMI-8226
RXF 393 = tested on: RXF 393
SF-268 = tested on: SF-268
SK-MEL-28 = tested on: SK-MEL-28
SK-MEL-2 = tested on: SK-MEL-2
SK-OV-3 = tested on: SK-OV-3
SN12C = tested on: SN12C
SNB-19 = tested on: SNB-19
SW-620 = tested on: SW-620
U-251 = tested on: U-251
UO-31 = tested on: UO-31
NCI-H226 = tested on: NCI-H226

Structure (SMILES) | GI50 (A498) | GI50 (HCT-116) | GI50 (HL-60) | GI50 (IGROV-1) | GI50 (MDA-N) | GI50 (MOLT-4) | GI50 (NCI-H522) | GI50 (RPMI-8226) | GI50 (RXF 393) | GI50 (SF-268) | GI50 (SK-MEL-28) | GI50 (SK-MEL-2) | GI50 (SK-OV-3) | GI50 (SN12C) | GI50 (SNB-19) | GI50 (SW-620) | GI50 (U-251) | GI50 (UO-31) | GI50 (NCI-H226)
COC1=CC(=O)c2c(cc(COP(=O)(N(C)CCBr)N(C)CCBr)n2C)C1=O | 1.97 µM (inactive) | 0.0542 µM (active) | 0.0543 µM (active) | 2.31 µM (inactive) | 1.21 µM (inactive) | < 0.0173 µM (active) | 0.281 µM (active) | 0.385 µM (active) | 0.229 µM (active) | 0.183 µM (active) | 1.59 µM (inactive) | 1.89 µM (inactive) | 0.918 µM (active) | < 0.0272 µM (active) | 0.798 µM (active) | 0.187 µM (active) | 0.0419 µM (active) | – | –
CCOC(=O)N(C)CCC1CC=CC(=O)C1c1cccc(OC)c1OC (stereo not given) | 33.3 µM (inactive) | 14.4 µM (inactive) | 19.4 µM (inactive) | 36.1 µM (inactive) | 13.1 µM (inactive) | 22.5 µM (inactive) | 13.6 µM (inactive) | 14.2 µM (inactive) | 10.5 µM (inactive) | 19.9 µM (inactive) | – | 13.7 µM (inactive) | 37.4 µM (inactive) | 17.3 µM (inactive) | 23.3 µM (inactive) | 20.9 µM (inactive) | 16.7 µM (inactive) | 16.6 µM (inactive) | –
COc1cc(OC2OC(CO)C(O)C(O)C2O)c2c(c1)O[C@@H]1[C@H](O)Oc3cc(OC)c(OC)cc3[C@]1(O)C2=O (stereo not given in full) | > 25 µM (inactive) | > 25 µM (inactive) | > 25 µM (inactive) | > 25 µM (inactive) | > 25 µM (inactive) | > 25 µM (inactive) | > 25 µM (inactive) | > 25 µM (inactive) | – | > 25 µM (inactive) | > 25 µM (inactive) | > 25 µM (inactive) | > 25 µM (inactive) | > 25 µM (inactive) | > 25 µM (inactive) | > 25 µM (inactive) | > 25 µM (inactive) | > 25 µM (inactive) | > 25 µM (inactive)
c1ccc(-c2csc3c2-n2cccc2C3N2CCCC2)cc1 (stereo not given) | 76 µM (inactive) | 43.8 µM (inactive) | 23.5 µM (inactive) | 21.1 µM (inactive) | 34.4 µM (inactive) | 42.3 µM (inactive) | 13.3 µM (inactive) | 20.8 µM (inactive) | > 100 µM (inactive) | 13.9 µM (inactive) | 24.7 µM (inactive) | > 100 µM (inactive) | – | > 100 µM (inactive) | 19.6 µM (inactive) | 44.2 µM (inactive) | 11.1 µM (inactive) | > 100 µM (inactive) | 85.1 µM (inactive)
O=C1CC[C@@]2(O)[C@H]3Cc4ccc(-c5cccc(O)c5)c5c4[C@@]2(CCN3CC2CC2)[C@H]1O5 | 21.3 µM (inactive) | 11.4 µM (inactive) | 0.0553 µM (active) | 23.6 µM (inactive) | 14.6 µM (inactive) | 22.9 µM (inactive) | 16.1 µM (inactive) | 23.3 µM (inactive) | 17.3 µM (inactive) | 22.3 µM (inactive) | 32.2 µM (inactive) | 1.51 µM (inactive) | – | 17.6 µM (inactive) | 4.3 µM (inactive) | > 35.1 µM (inactive) | 8.38 µM (inactive) | 14.1 µM (inactive) | 29.3 µM (inactive)
CC1CNC(c2cccc(OCc3ccc(COc4cccc(C5=NC(C)CN5)c4)cc3)c2)=N1 (stereo not given) | > 100 µM (inactive) | 23.6 µM (inactive) | 23.2 µM (inactive) | > 100 µM (inactive) | 38.6 µM (inactive) | 19.3 µM (inactive) | 23 µM (inactive) | 15.6 µM (inactive) | 40.7 µM (inactive) | 35.6 µM (inactive) | 61.7 µM (inactive) | 20.8 µM (inactive) | > 100 µM (inactive) | 19.5 µM (inactive) | 68.1 µM (inactive) | 42.6 µM (inactive) | 35.6 µM (inactive) | > 100 µM (inactive) | –
C#CCOC(=O)C(N)CCCNC(=N)N (stereo not given) | > 100 µM (inactive) | > 100 µM (inactive) | > 100 µM (inactive) | > 100 µM (inactive) | > 100 µM (inactive) | > 100 µM (inactive) | > 100 µM (inactive) | > 100 µM (inactive) | > 100 µM (inactive) | > 100 µM (inactive) | > 100 µM (inactive) | > 100 µM (inactive) | – | > 100 µM (inactive) | > 100 µM (inactive) | > 100 µM (inactive) | > 100 µM (inactive) | > 100 µM (inactive) | > 100 µM (inactive)
CCOC(=O)C1(N)CCc2[nH][nH]c(=O)c2C1 (stereo not given) | > 100 µM (inactive) | > 100 µM (inactive) | > 100 µM (inactive) | > 100 µM (inactive) | > 100 µM (inactive) | > 100 µM (inactive) | > 100 µM (inactive) | > 100 µM (inactive) | – | – | > 100 µM (inactive) | > 100 µM (inactive) | > 100 µM (inactive) | – | > 100 µM (inactive) | > 100 µM (inactive) | > 100 µM (inactive) | > 100 µM (inactive) | > 100 µM (inactive)
COc1cc(OCc2ccccc2)c2c(CCC(=O)O)cc(=O)oc2c1.COc1cc(OCc2ccccc2)cc2oc(=O)cc(CCC(=O)O)c12 | 14.7 µM (inactive) | 54 µM (inactive) | 34.1 µM (inactive) | 51.2 µM (inactive) | > 100 µM (inactive) | 28.1 µM (inactive) | 42.5 µM (inactive) | 57.3 µM (inactive) | – | 61 µM (inactive) | 42.3 µM (inactive) | 30.1 µM (inactive) | 82.4 µM (inactive) | – | 92.3 µM (inactive) | > 100 µM (inactive) | 55 µM (inactive) | 43.4 µM (inactive) | 87.3 µM (inactive)
CCCCCCCCCCCCC(=O)NCC(=O)NC(Cc1ccccc1)C(=O)Oc1ccc([N+](=O)[O-])cc1 (stereo not given) | > 100 µM (inactive) | 30.9 µM (inactive) | 64.4 µM (inactive) | 87.9 µM (inactive) | > 100 µM (inactive) | – | 29.4 µM (inactive) | – | 91.4 µM (inactive) | 31.9 µM (inactive) | – | > 100 µM (inactive) | – | 70.1 µM (inactive) | 15.2 µM (inactive) | 39.9 µM (inactive) | – | 92.9 µM (inactive) | 33.5 µM (inactive)
[N-]=[N+]=Nc1nc2ccccc2c(N=[N+]=[N-])c1Cl | 6.81 µM (inactive) | > 100 µM (inactive) | > 100 µM (inactive) | > 100 µM (inactive) | > 100 µM (inactive) | > 100 µM (inactive) | – | > 100 µM (inactive) | 25.6 µM (inactive) | > 100 µM (inactive) | > 100 µM (inactive) | > 100 µM (inactive) | 92 µM (inactive) | > 100 µM (inactive) | > 100 µM (inactive) | > 100 µM (inactive) | > 100 µM (inactive) | > 100 µM (inactive) | –
c1nncn1C12C3C4C5C3C1C5C42 (stereo not given) | > 100 µM (inactive) | > 100 µM (inactive) | > 100 µM (inactive) | > 100 µM (inactive) | > 100 µM (inactive) | > 100 µM (inactive) | > 100 µM (inactive) | > 100 µM (inactive) | – | > 100 µM (inactive) | > 100 µM (inactive) | > 100 µM (inactive) | > 100 µM (inactive) | > 100 µM (inactive) | > 100 µM (inactive) | > 100 µM (inactive) | > 100 µM (inactive) | – | > 100 µM (inactive)
